In PubChem BioAssay (NCI):
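Briefly, cells in 96-well plates were exposed to five compound concentrations for 48 h, and endpoints were estimated by linear interpolation. GI50: concentration for 50% inhibition of growth. TGI denotes the concentration required for complete inhibition of growth.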

Columns and labels:
Test in all cases: growth of human tumour cells (NCI), 48 h
BT-549 breast = system: BT-549 breast
HT29 colon = system: HT29 colon
OVCAR-5 ovarian = system: OVCAR-5 ovarian
A498 renal = system: A498 renal
COLO 205 colon = system: COLO 205 colon
SK-MEL-28 melanoma = system: SK-MEL-28 melanoma
HOP-92 NSCLC = system: HOP-92 NSCLC
SF-539 CNS = system: SF-539 CNS
LOX IMVI melanoma = system: LOX IMVI melanoma
NCI-H522 lung = system: NCI-H522 lung

Compound	TGI (BT-549 breast)	GI50 (HT29 colon)	TGI (HT29 colon)	TGI (OVCAR-5 ovarian)	GI50 (A498 renal)	TGI (A498 renal)	GI50 (COLO 205 colon)	TGI (COLO 205 colon)	GI50 (SK-MEL-28 melanoma)	TGI (SK-MEL-28 melanoma)	GI50 (HOP-92 NSCLC)	TGI (HOP-92 NSCLC)	GI50 (SF-539 CNS)	TGI (SF-539 CNS)	GI50 (LOX IMVI melanoma)	TGI (LOX IMVI melanoma)	GI50 (BT-549 breast)	GI50 (OVCAR-5 ovarian)	GI50 (NCI-H522 lung)	TGI (NCI-H522 lung)
CC(C)CC(=O)O[C@H]1C(=O)O[C@@H]2C[C@H]3[C@H](C)C(=O)C(O[C@@H]4O[C@H](CO)[C@@H](O)[C@H](O)[C@H]4O)=C[C@]3(C)[C@H]3[C@@H](O)[C@H](O)[C@]4(C(=O)O)OC[C@]32[C@@H]14	> 100 µM	34 µM	> 100 µM	> 100 µM	> 100 µM	> 100 µM	> 100 µM	> 100 µM	25.2 µM	> 100 µM	37 µM	> 100 µM	20.5 µM	53.3 µM	38.7 µM	> 100 µM				
O=c1[nH]c(-c2ccncc2)nc2sc3c(c12)CCCCCC3	> 100 µM	> 100 µM	> 100 µM	> 100 µM	> 100 µM	> 100 µM	> 100 µM	> 100 µM	> 100 µM	> 100 µM	> 100 µM	> 100 µM	> 100 µM	> 100 µM	> 100 µM	> 100 µM	> 100 µM	> 100 µM	> 100 µM	> 100 µM
CS(=O)c1cc(=O)c2ccccc2s1 (configuration not stated)	27.6 µM		12.9 µM	18.2 µM		25.4 µM		4.65 µM		8.97 µM		6.7 µM		18.4 µM		9.02 µM				3.07 µM
Fc1cnccc1-c1nc2ccc3[nH]ncc3c2c2c1CCCC2	7.74 µM	2.49 µM	> 100 µM	> 100 µM	0.7 µM	2.96 µM					1.62 µM	9.97 µM	1.29 µM	4.54 µM	1.58 µM	12.6 µM	1.28 µM	3.16 µM	1.31 µM	8.76 µM
C=C(C)[C@@H]1CC[C@]2(C(=O)OC)CC[C@]3(C)[C@H](CC[C@@H]4[C@@]5(C)CC/C(=N\OCCC(=NCCC#N)NOCCC#N)C(C)(C)[C@@H]5CC[C@]43C)[C@@H]12	> 50 µM	6.7 µM	26.2 µM	> 50 µM	21.7 µM	> 50 µM	9.02 µM	> 50 µM	17.1 µM	> 50 µM	6.9 µM	35 µM	11 µM	> 50 µM	4.32 µM	10.4 µM	11.3 µM	16.7 µM	8.34 µM	> 50 µM
